Results on 20 compounds are retold here after patent US11208423B2, “Pyridinamine-pyridone and pyrimidinamine- pyridone compounds” (Sprint Bioscience AB, priority 2017, dated 2021).

The target of one assay is Vps34 enzyme (Homo sapiens (Human), UniProt Q8NEB9). Nature of the assay: Vps34 Biochemical Assay (Adapta kinase assay). Particulars: 20 μM ATP / 200 μM PI:PS substrate mix, 1 h at room temperature, TR-FRET, read-out: Median IC50 nM Adapta. The method, then: Dilution series of compounds of the invention were prepared in DMSO at 100 times the final assay concentration (n1=n0/3 in 10 points). The compounds were further diluted to 4 times the assay concentration in assay buffer (Life technologies buffer Q, PV5125, diluted 5 times supplemented with 2 mM DTT and 2 mM MnCl2). 2.5 μl of the diluted compounds were added to a 384 well assay plate followed by 2.5 μl of 16.5 nM Vps34 enzyme (Life technologies, PV5126). Enzyme and compounds were pre-incubated at rt for 15 min. Then 5 μl of substrate mix containing 20 μM ATP (Life technologies, PV3227) and 200 μM PI:PS substrate (Life technologies, PV5122) in assay buffer was added to the wells containing compound and enzyme. Mixing was performed by pipetting several times. The reaction was incubated at room temperature for 1 h. Then 5 μl stop-detection mix, prepared as described in the Adapta kinase assay kit instructions (Life technologies, PV5099) containing Adapta Eu-anti-ADP antibody (2.3 nM), Alexa Fluor 647 ADP tracer (9 nM) and EDTA (30 mM) in TR-FRET buffer, was added to quench the reaction. Mixing was performed by pipetting several times. The assay plate was then incubated at room temperature for 30 min and read with Artemis micro plate reader. Percent inhibition of the compounds as compared to DMSO treated control samples was calculated. By the use of Dotmatics software compound concentration versus percent inhibition was fitted to generate IC50 values.

The test system of assay [1] is autophagy in HOS cells (GFP-LC3). Nature of the assay: High Content Screening Autophagy Assay (GFP-LC3 foci). Particulars: Homo sapiens; HOS cells expressing GFP-LC3; autophagy activated with KU-0063794 500 nM plus Bafilomycin A1 5 nM; 6 hours; foci area per cell; read-out: Median IC50 (μM) Cellular assay. Format: cell-based. The method, then: High Content Screening Autophagy Assay
Human osteosarcoma cells (HOS) stably expressing a Green Fluorescent Protein (GFP) tagged LC3 (GFP-LC3) were used to determine the inhibitory effect on autophagy of proprietary compounds. For that purpose, autophagy was activated by using the mTOR inhibitor KU-0063794 at 500 nM in the presence of Bafilomycin A1 (Sigma-Aldrich) at 5 nM. Shortly, cells were plated overnight in clear bottom 96-well plates in DMEM—High Modified media (Hi-Clone Cat #SH30285.01). At the start of the experiment, the media was removed and replaced with fresh media containing the mTOR inhibitor, Bafilomycin A1 and the vehicle or a test compound as indicated. After 6 hours the media was removed, cells were washed twice with ice-cold phosphate buffered saline (PBS) and fixed with 4% paraformaldehyde for 20 minutes at room temperature. Then the cells were washed twice with ice-cold PBS before adding Hoechst 33342 at 1 μg/ml in PBS for nuclear staining. After incubation overnight at 4° C., cells were washed once with PBS to remove the excess of dye and 100 μl of PBS was added to each well. Images were acquired at 20× magnification, 6 images per well, using the ImageXpress automated microscope (Molecular Devices Inc.) and analyzed with MetaXpress software to identify LC3-GFP foci. Foci area per cell values were used to generate dose response curves and IC50 values were calculated using the non-linear fitting analysis in GraphPad Prism software.
The results of the assay are shown in Table 2 (Median IC50 μM HOS-LC3).

Vps34 enzyme, sequence (Q8NEB9 whole entry): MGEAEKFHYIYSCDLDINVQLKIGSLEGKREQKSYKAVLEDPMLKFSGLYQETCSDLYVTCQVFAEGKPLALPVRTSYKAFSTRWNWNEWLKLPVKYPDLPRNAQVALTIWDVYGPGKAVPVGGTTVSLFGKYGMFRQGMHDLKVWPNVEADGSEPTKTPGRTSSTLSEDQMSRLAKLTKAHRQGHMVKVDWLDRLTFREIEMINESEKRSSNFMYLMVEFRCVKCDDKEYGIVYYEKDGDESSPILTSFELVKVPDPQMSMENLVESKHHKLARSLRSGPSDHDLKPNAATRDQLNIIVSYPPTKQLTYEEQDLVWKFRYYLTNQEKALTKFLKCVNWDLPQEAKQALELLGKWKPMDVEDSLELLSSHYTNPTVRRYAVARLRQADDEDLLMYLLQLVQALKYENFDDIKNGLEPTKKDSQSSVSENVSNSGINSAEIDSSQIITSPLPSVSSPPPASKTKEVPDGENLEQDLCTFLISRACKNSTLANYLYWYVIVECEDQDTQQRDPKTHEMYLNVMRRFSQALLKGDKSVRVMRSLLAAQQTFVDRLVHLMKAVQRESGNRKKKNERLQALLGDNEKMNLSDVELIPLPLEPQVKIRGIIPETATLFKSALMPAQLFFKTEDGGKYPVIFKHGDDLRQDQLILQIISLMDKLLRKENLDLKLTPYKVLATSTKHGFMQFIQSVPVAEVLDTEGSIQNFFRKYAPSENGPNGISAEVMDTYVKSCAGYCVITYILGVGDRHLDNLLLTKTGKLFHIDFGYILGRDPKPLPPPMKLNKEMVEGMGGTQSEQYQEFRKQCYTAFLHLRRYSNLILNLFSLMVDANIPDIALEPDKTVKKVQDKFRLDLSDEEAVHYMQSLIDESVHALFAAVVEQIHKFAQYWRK

What is called IC50 is the concentration that inhibits the measured activity by half. Consider `Cc1nc(Nc2cc(-c3cc(N4CCOCC4C(F)(F)F)[nH]c(=O)c3)ccn2)cs1` (stereo not drawn) [Example 42, 4-[2-[(2-Methylthiazol-4-yl)amino]-4-pyridyl]-6-[3-(trifluoromethyl)morpholin-4-yl]-1H-pyridin-2-one], for which the IC50 on Vps34 enzyme is 13 nM. For `O=c1cc(-c2ccnc(Nc3ccccc3)n2)cc(N2CCOCC2)[nH]1` [Example 10, 4-(2-anilinopyrimidin-4-yl)-6-morpholino-1H-pyridin-2-one], the IC50 in assay [1] was 0.019 µM; at Vps34 enzyme, less than 5 nM. As for `Cn1nccc1Nc1cc(-c2cc(-c3ccccc3C(F)(F)F)[nH]c(=O)c2)ccn1` [Example 50, 4-[2-[(2-Methylpyrazol-3-yl)amino]-4-pyridyl]-6-[2-(trifluoromethyl)phenyl]-1H-pyridin-2-one], the values for the IC50 (in assay [1]; on Vps34 enzyme) were 0.254 µM and 55 nM, respectively.

Turning to `Cc1nccc(Nc2cc(-c3cc(-c4cnccc4C)[nH]c(=O)c3)ccn2)n1` [Example 55, 6-(4-Methyl-3-pyridyl)-4-[2-[(2-methylpyrimidin-4-yl)amino]-4-pyridyl]-1H-pyridin-2-one], the values for the IC50 (in assay [1]; at Vps34 enzyme) were 0.099 µM and less than 5 nM, respectively. The matching figures for `Cc1nccc(Nc2cc(-c3cc(-c4ccccc4C(F)(F)F)[nH]c(=O)c3)ccn2)n1` [Example 47, 4-[2-[(2-Methylpyrimidin-4-yl)amino]-4-pyridyl]-6-[2-(trifluoromethyl)phenyl]-1H-pyridin-2-one]: 0.003 µM and less than 5 nM.

As for `O=c1cc(-c2ccnc(Nc3ncco3)c2)cc(N2CCOCC2C(F)(F)F)[nH]1` (stereo not drawn) [Example 40, 4-[2-(Oxazol-2-ylamino)-4-pyridyl]-6-[3-(trifluoromethyl)morpholin-4-yl]-1H-pyridin-2-one], the IC50 in assay [1] is 0.029 µM; on Vps34 enzyme, less than 5 nM. `Cc1nccc(Nc2cc(-c3cc(N4CCOCC4C(F)(F)F)[nH]c(=O)c3)ccn2)n1` (stereo not drawn) [Example 26, 4-[2-[(2-Methylpyrimidin-4-yl)amino]-4-pyridyl]-6-[3-(trifluoromethyl)morpholin-4-yl]-1H-pyridin-2-one]: the half-inhibitory concentration (IC50) is 0.01 µM in assay [1] and less than 5 nM at Vps34 enzyme. Consider `O=c1cc(-c2ccnc(Nc3ccccc3)n2)cc(N2CCOCC2C(F)(F)F)[nH]1` (stereo not drawn) [Example 27, 4-(2-Anilinopyrimidin-4-yl)-6-[3-(trifluoromethyl)morpholin-4-yl]-1H-pyridin-2-one], for which the IC50 was 0.02 µM in assay [1] and less than 5 nM at Vps34 enzyme. In the case of `Cc1nccc(Nc2cc(-c3cc(-c4cccnc4C(F)(F)F)[nH]c(=O)c3)ccn2)n1` [Example 57, 4-[2-[(2-Methylpyrimidin-4-yl)amino]-4-pyridyl]-6-[2-(trifluoromethyl)-3-pyridyl]-1H-pyridin-2-one], the IC50 was 0.006 µM in assay [1] and less than 5 nM at Vps34 enzyme. The matching figures for `O=c1cc(-c2ccnc(Nc3ccccc3)n2)cc(-c2ccncc2)[nH]1` [Example 8, 4-(2-Anilinopyrimidin-4-yl)-6-(4-pyridyl)-1H-pyridin-2-one]: 0.066 µM and 6 nM. Consider `Cc1nc(Nc2cc(-c3cc(-c4ccccc4C(F)(F)F)[nH]c(=O)c3)ccn2)cs1` [Example 52, 4-[2-[(2-Methylthiazol-4-yl)amino]-4-pyridyl]-6-[2-(trifluoromethyl)phenyl]-1H-pyridin-2-one], for which the half-inhibitory concentration (IC50) on Vps34 enzyme is 52 nM. Consider `Cc1nccc(Nc2cc(-c3cc(N4CCCCC4C(F)(F)F)[nH]c(=O)c3)ccn2)n1` (stereo not drawn) [Example 18, 4-[2-[(2-Methylpyrimidin-4-yl)amino]-4-pyridyl]-6-[2-(trifluoromethyl)-1-piperidyl]-1H-pyridin-2-one], for which the IC50 at Vps34 enzyme was less than 5 nM. For `Cc1nccc(Nc2cc(-c3cc(N4CCN(S(=O)(=O)Cc5ccc(F)cc5)CC4C(F)(F)F)[nH]c(=O)c3)ccn2)n1` (stereo not drawn) [Example 33, 6-[4-[(4-Fluorophenyl)methylsulfonyl]-2-(trifluoromethyl)piperazin-1-yl]-4-[2-[(2-methylpyrimidin-4-yl)amino]-4-pyridyl]-1H-pyridin-2-one], the IC50 in assay [1] is 0.003 µM; at Vps34 enzyme it was less than 5 nM. For `CCS(=O)(=O)N1CCN(c2cc(-c3ccnc(Nc4ccnc(C)n4)c3)cc(=O)[nH]2)C(C(F)(F)F)C1` (stereo not drawn) [Example 39, 6-[4-Ethylsulfonyl-2-(trifluoromethyl)piperazin-1-yl]-4-[2-[(2-methylpyrimidin-4-yl)amino]-4-pyridyl]-1H-pyridin-2-one], the IC50 is 0.002 µM in assay [1] and less than 5 nM at Vps34 enzyme.

For the compound `O=c1cc(-c2ccnc(Nc3ccccc3)n2)cc(N2CCCCC2C(F)(F)F)[nH]1` (stereo not drawn) [Example 21, 4-(2-Anilinopyrimidin-4-yl)-6-[2-(trifluoromethyl)-1-piperidyl]-1H-pyridin-2-one], the IC50 on Vps34 enzyme is less than 5 nM. On to `Cc1nccc(Nc2cc(-c3cc(-c4ccccc4Cl)[nH]c(=O)c3)ccn2)n1` [Example 66, 6-(2-Chlorophenyl)-4-[2-[(2-methylpyrimidin-4-yl)amino]-4-pyridyl]-1H-pyridin-2-one], for which the IC50 at Vps34 enzyme was less than 5 nM. As to `CCn1cc(-c2cc(-c3ccnc(Nc4ccnc(C)n4)c3)cc(=O)[nH]2)c(C(F)(F)F)n1` [Example 59, 6-[1-Ethyl-3-(trifluoromethyl)pyrazol-4-yl]-4-[2-[(2-methylpyrimidin-4-yl)amino]-4-pyridyl]-1H-pyridin-2-one], the figures for the IC50 (in assay [1]; at Vps34 enzyme) were 0.005 µM and less than 5 nM, respectively. As for `O=c1cc(-c2ccnc(Nc3ccccc3)n2)cc(-c2ccccc2Cl)[nH]1` [Example 4, 4-(2-anilinopyrimidin-4-yl)-6-(2-chlorophenyl)-1H-pyridin-2-one], the IC50 at Vps34 enzyme was less than 5 nM. Turning to `Cn1cnc(Nc2cc(-c3cc(-c4ccccc4C(F)(F)F)[nH]c(=O)c3)ccn2)c1` [Example 62, 4-[2-[(1-Methylimidazol-4-yl)amino]-4-pyridyl]-6-[2-(trifluoromethyl)phenyl]-1H-pyridin-2-one], the IC50 at Vps34 enzyme was found to be 12 nM.

For the compound `O=c1cc(-c2ccnc(Nc3ccccc3)n2)cc(-c2cccnc2)[nH]1` [Example 6, 4-(2-Anilinopyrimidin-4-yl)-6-(3-pyridyl)-1H-pyridin-2-one], the IC50 in assay [1] was 0.054 µM; on Vps34 enzyme, less than 5 nM.
